From patent US10913781B2, “Pepducin design and use” (Tufts Medical Center, Inc., priority 2011, dated 2021) come the findings set out here.

One series has as its target T1, PAR1 (Homo sapiens, UniProt P25116).
T1 sequence (P25116 22-425): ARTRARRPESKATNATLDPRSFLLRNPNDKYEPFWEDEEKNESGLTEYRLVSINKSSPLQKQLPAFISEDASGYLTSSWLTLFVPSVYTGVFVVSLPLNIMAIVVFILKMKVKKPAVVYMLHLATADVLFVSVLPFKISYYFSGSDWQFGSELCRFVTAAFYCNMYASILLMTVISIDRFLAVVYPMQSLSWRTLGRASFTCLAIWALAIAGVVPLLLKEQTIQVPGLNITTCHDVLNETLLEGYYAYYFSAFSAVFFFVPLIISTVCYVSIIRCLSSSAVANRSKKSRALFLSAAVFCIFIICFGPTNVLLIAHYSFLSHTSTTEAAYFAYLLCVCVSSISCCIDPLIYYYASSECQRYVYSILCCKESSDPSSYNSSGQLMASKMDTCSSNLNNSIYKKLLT
The series can be described thus: Human neutrophil chemotaxis to TFLLRN. The class given is cell-based. The arrangement: endogenous in cells. Particulars: 10 μM TFLLRN. The protocol:
(A) Human neutrophils (n=4 normal volunteers) were analyzed for surface expression of human PAR1, PAR2, and PAR4 by flow cytometry with PAR-specific antibodies. […] Chemotaxis index is the ratio of directed versus random migration over 30 min through a 5-μm pore filter.
P2pal-18S had no effect on PAR1-dependent platelet aggregation (FIG. 5A). Neither P2pal-18S nor P2pal-14GQ caused membrane disruption or apoptosis as assessed by propidium iodide uptake in SW620 cells with up to 30 μM concentrations of pepducin (FIG. 5B).

Another series concerns the target T2, PAR4 (Homo sapiens, UniProt Q96RI0).
T2 sequence (Q96RI0 18-385): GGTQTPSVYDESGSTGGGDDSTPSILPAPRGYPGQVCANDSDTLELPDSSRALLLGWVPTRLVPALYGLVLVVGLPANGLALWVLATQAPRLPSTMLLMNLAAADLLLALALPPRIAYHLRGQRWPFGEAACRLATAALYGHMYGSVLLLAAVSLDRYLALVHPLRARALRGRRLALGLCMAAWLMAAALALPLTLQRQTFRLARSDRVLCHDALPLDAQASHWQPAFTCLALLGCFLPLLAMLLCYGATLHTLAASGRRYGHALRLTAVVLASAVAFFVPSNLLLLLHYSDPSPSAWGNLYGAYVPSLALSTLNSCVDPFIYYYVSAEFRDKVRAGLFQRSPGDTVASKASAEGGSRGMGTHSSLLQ
As to the kind of experiment: Calcium flux assay in SW620 cells, PAR4. The series is classed as cell-based. Also on record: endogenous in cells. (A change in cytosolic calcium serves as a functional read-out for many receptors and channels.)

Series [1] addresses T3, PAR2 (Homo sapiens, UniProt P55085). As to the kind of experiment: PLC-b inositol phosphate formation, PAR2 (SLIGRL). The class given is cell-based. Also on record: expressed in transfected cells; host or cells: COS7. The method, then: (A) PAR2 antagonist pepducins P2pal-18S and P2pal-14GQ inhibit calcium flux induced by PAR2 (SLIGRL) (SEQ ID NO:4) but not PAR1 (TFLLRN) (SEQ ID NO:2) agonists. SW620 cells were stably transfected with PAR1 and pretreated for 1 min with various concentrations of P2pal-18S or P2pal-14GQ and then stimulated with 30 μM PAR agonist. […] Cells were stimulated with 1 μM TFLLRN (SEQ ID NO:2), 1 μM SLIGRL (SEQ ID NO:4) or 100 μM AYPGKF (SEQ ID NO:5) and [^3H]-InsP formation measured over 30 min. (C) SW620 cells were treated with the indicated concentrations of P2pal-18S or P2pal-14GQ in the upper well of an 8-μm pore Boyden chamber and allowed to migrate for 18 h towards 10 μM of the PAR2 specific agonist SLIGRL in the lower chamber. The migration to RPMI/0.1% FBS represents random migration. (D) Migration of HEK cells transiently transfected with PAR2 (wild-type, WT), or PAR2-R36A/PAR2-RQ toward chemotactic gradients of 30 nM trypsin in the absence or presence of the indicated concentration of P2pal-18S for 18 h in a transwell apparatus ([…]). Data (n=2-4) are mean±SEM. *, P<0.05 and **, P<0.005.
Additionally, we tested whether P2pal-18S inhibited proteolytic cleavage of PAR2 or endocytosis (DeFea K A, et al. (2000) J Cell Biol 148: 1267-81; Roosterman D, et al. (2003) Am J Physiol Cell Physiol 284: C1319-29; Stalheim L, et al. (2005) Mol Pharmacol 67: 78-87). […]

Series [2] addresses T3, PAR2. The series can be described thus: Calcium flux screen for PAR2 pepducin agonist and antagonist activity in SW620 cells. The class given is cell-based. Particulars: 3-4 μM and 14-15 μM pepducin. Also on record: SW620 colon adenocarcinoma cells that endogenously express PAR2; endogenous in cells; host or cells: SW620 (in A7 the SW620 cells were additionally stably transfected with PAR1).
Experimental: (A) Agonist and antagonist activity of third intracellular (i3) loop PAR2 pepducins (structure shown on top) using calcium flux assays with SW620 colon adenocarcinoma cells that endogenously express PAR2. Each column of three calcium flux traces corresponds to the i3 pepducin sequence shown above. The top row is the agonist activity of 3-4 μM pepducin and the middle row is the agonist activity of 14-15 μM pepducin. […] Final concentration of DMSO vehicle was 0.2%. […] (C) Agonist activity for each pepducin from (A) is reported as initial velocity of calcium flux at 4 μM pepducin (†), or at 14-15 μM pepducin (‡).

Series [3] can be described thus: Pharmacokinetics of PAR1 pepducins in CF-1 mice, plasma LC/MS/MS. The class given is in vivo, mouse. The arrangement: Peak plasma level: unit not given here. Particulars: 10 mg/kg s.c. The method, then: FIG. 14 illustrates pharmacokinetics of PAR1 pepducins. (A): CF-1 mice were injected subcutaneously with P1pal-7 (3 mg/kg, open circles), P1pal-7 (10 mg/kg, closed circles), P1pal-10S (10 mg/kg, gray circles), or P1pal-i1-11 (10 mg/kg, open squares) in 20% dimethyl sulfoxide and blood was collected at indicated time points (n=3). Pepducin levels in plasma were quantified with LC/MS/MS. (B): Daily (D1 to D6) plasma levels of P1pal-7 after subcutaneous injection of 10 mg/kg P1pal-7 were measured at 1 hour (open circles) and 24 hours (open squares).
Pharmacokinetics of plasma levels of P1pal-7, P1pal-10S, and P1pal-i1-11 at 30 minutes, and at 1, 2, 4, 6, 8, and 16 hours was measured by LC/MS/MS to determine steady-state pepducin drug levels and the rate of elimination from mice. Subcutaneous injections of P1pal-7 (3 mg/kg or 10 mg/kg) into wild-type CF-1 mice (25 to 30 g) was followed by blood collection at various time points from the vena cava. […] Residual P1pal-7 levels were 10 nmol/L at the 16-hour time point. After the 4-hour plateau, the elimination rate was linear from 4 to 16 hours. The peak plasma level of 3 mg/kg P1pal-7 reached 0.6 μmol/L at 2 hours and elimination was linear between 2 hours and 16 hours. P1pal-10S (10 mg/kg) gave similar peak plasma level of 1.0 μmol/L as P1pal-7 (10 mg/kg) at 1 hour.
Lastly, the peak plasma level of P1pal-7 (10 mg/kg) was measured before and 1 hour after once-daily subcutaneous injection over 6 days to determine whether the peak plasma levels were consistent on daily administration.

Peptide text beside a SMILES is read from it. * marks the point of attachment. Palmitoyl = CCCCCCCCCCCCCCCC(=O)*

T3 sequence (P55085 26-397): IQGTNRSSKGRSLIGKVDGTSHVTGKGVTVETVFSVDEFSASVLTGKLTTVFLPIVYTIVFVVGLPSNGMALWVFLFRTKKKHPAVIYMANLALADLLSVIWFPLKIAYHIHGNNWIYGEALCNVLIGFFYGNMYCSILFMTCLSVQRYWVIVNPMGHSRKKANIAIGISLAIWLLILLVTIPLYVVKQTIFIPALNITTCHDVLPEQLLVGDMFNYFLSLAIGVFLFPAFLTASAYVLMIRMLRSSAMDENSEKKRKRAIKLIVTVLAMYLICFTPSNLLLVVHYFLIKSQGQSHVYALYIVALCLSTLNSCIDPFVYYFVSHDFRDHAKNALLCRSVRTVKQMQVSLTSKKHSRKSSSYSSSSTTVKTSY

With `CCCCCCCCCCCCCCCC(=O)N[C@@H](CCCNC(=N)N)C(=O)N[C@@H](CO)C(=O)N[C@@H](CO)C(=O)N[C@@H](C)C(=O)N[C@@H](CCSC)C(=O)N[C@@H](CC(=O)O)C(=O)N[C@@H](CCC(=O)O)C(=O)N[C@@H](CC(N)=O)C(=O)N[C@@H](CO)C(=O)N[C@@H](CCC(=O)O)C(=O)N[C@@H](CCCCN)C(=O)N[C@@H](CCCCN)C(=O)N[C@@H](CCCNC(=N)N)C(=O)N[C@@H](CCCCN)C(=O)N[C@@H](CO)C(=O)N[C@@H](C)C(=O)N[C@H](C(=O)N[C@@H](CCCCN)C(N)=O)[C@@H](C)CC` [P2pal-18S], the “Antagonist activity, neutrophil chemotaxis, PAR1” value on PAR1 was “no antagonist activity”. Also, the “Inhibition of PAR4 calcium flux” value on PAR4 was “did not inhibit”. The “Inhibition of PAR2-dependent PLC-b inositol phosphate formation” value at PAR2 [1] is listed as “can inhibit”. In addition, the “Agonist activity (calcium flux)” value at PAR2 [2] was “no detectable or otherwise significant agonist activity”.

Regarding `CCCCCCCCCCCCCCCC(=O)N[C@H](C(=O)N[C@@H](CC(C)C)C(=O)N[C@@H](CCCCN)C(=O)N[C@@H](CCSC)C(=O)N[C@@H](CCCCN)C(=O)N[C@H](C(=O)N[C@@H](CCCCN)C(=O)N[C@@H](CCCCN)C(=O)N1CCC[C@H]1C(=O)N[C@@H](C)C(=O)N[C@H](C(N)=O)C(C)C)C(C)C)[C@@H](C)CC` [P1pal-i1-11] (Palmitoyl-ILKMKVKKPAV-NH2), in series [3], the “Clearance / plasma half-life in words” value is “sustained plasma half-life”. The Peak plasma level in series [3] (between 0.5 and 8 hours) worked out at 5.0.
